Starred links: 1 amine or outer side, 2 acyl side, 3 side chain; linkers in the order of their positions; H or OH if unused. Positions of bridges follow the written chain, without caps; N, C: chain ends. Non-standard residues stand in square brackets, D forms with d. Residues, ends and D or L forms follow the SMILES beside them. Trimesoyl = O=C(c1cc(C(=O)[*:2])cc(C(=O)[*:3])c1)[*:1]; Phe(4-Br) = N[C@@H](Cc1ccc(Br)cc1)C(=O)O; Phe(4-F) = N[C@@H](Cc1ccc(F)cc1)C(=O)O; 2Nal = N[C@@H](Cc1ccc2ccccc2c1)C(=O)O; Pip = O=C(O)[C@@H]1CCCCN1; Dap = NC[C@H](N)C(=O)O; Sar = CNCC(=O)O
target: T1, Pin1 (Homo sapiens, UniProt Q13526, S16A/Y23A); assay: Pin1 binding by FA (FITC-labeled peptides); details: FITC-labeled peptide, FA; read-out: KD
T1 construct: The full-length human S16A/Y23A mutant Pin1 was expressed and purified from E. coli; made in house

Kd [nM] | Molecule
1780 ± 420 | C[C@@H]1NC(=O)[C@H](CCCNC(=N)N)NC(=O)[C@H](Cc2ccc3ccccc3c2)NC(=O)[C@@H]2CCCCN2C(=O)[C@@H]([C@H](C)O)NC(=O)[C@H](Cc2ccc(Br)cc2)NC(=O)[C@@H](Cc2ccccc2)NC(=O)c2cc3cc(c2)C(=O)NC[C@H](NC(=O)[C@@H](Cc2ccccc2)NC1=O)C(=O)N[C@@H](Cc1ccccc1)C(=O)N[C@@H](Cc1ccc2ccccc2c1)C(=O)N[C@@H](CCCNC(=N)N)C(=O)N[C@@H](CCCNC(=N)N)C(=O)N[C@@H](CCCNC(=N)N)C(=O)N[C@@H](CCCNC(=N)N)C(=O)N[C@H](C(=O)N[C@@H](CCCCN)C(N)=O)CNC3=O [Peptide 32, bicyclo[Tm-(D-Phe-4-BrPhe-D-Thr-Pip-Nal-Arg-Ala-D-Phe)-Dap-(Phe-Nal-Arg-Arg-Arg-Arg-Dap)]-Lys] ([dF][Phe(4-Br)][dT][Pip][2Nal]RA[dF][Dap]F[2Nal]RRRR[Dap]K-NH2; linker N-9-16 via Trimesoyl; C-terminus assumed)
720 ± 90 | C[C@H]1NC(=O)[C@H](CCCNC(=N)N)NC(=O)[C@H](CCCNC(=N)N)NC(=O)[C@H](Cc2ccc3ccccc3c2)NC(=O)[C@@H]2CCCCN2C(=O)[C@@H](CC(=O)O)NC(=O)CN(C)C(=O)[C@@H]2CCCN2C(=O)c2cc3cc(c2)C(=O)NC[C@H](NC1=O)C(=O)N[C@@H](Cc1ccccc1)C(=O)N[C@@H](Cc1ccc2ccccc2c1)C(=O)N[C@@H](CCCNC(=N)N)C(=O)N[C@@H](CCCNC(=N)N)C(=O)N[C@@H](CCCNC(=N)N)C(=O)N[C@@H](CCCNC(=N)N)C(=O)N[C@H](C(=O)N[C@@H](CCCCN)C(N)=O)CNC3=O [Peptide 19, bicyclo[Tm-(Pro-Sar-D-Asp-Pip-Nal-Arg-Arg-D-Ala)-Dap-(Phe-Nal-Arg-Arg-Arg-Arg-Dap)]-Lys] (P[Sar][dD][Pip][2Nal]RR[dA][Dap]F[2Nal]RRRR[Dap]K-NH2; linker N-9-16 via Trimesoyl; C-terminus assumed)
980 ± 180 | C[C@@H]1NC(=O)[C@H](CCCNC(=N)N)NC(=O)[C@H](Cc2ccc3ccccc3c2)NC(=O)[C@@H]2CCCCN2C(=O)[C@@H]([C@H](C)O)NC(=O)[C@H](Cc2ccc(F)cc2)NC(=O)[C@@H](Cc2ccccc2)NC(=O)c2cc3cc(c2)C(=O)NC[C@H](NC(=O)[C@@H](Cc2ccccc2)NC1=O)C(=O)N[C@@H](CCCNC(=N)N)C(=O)N[C@@H](CCCNC(=N)N)C(=O)N[C@@H](CCCNC(=N)N)C(=O)N[C@@H](CCCNC(=N)N)C(=O)N[C@@H](Cc1ccc2ccccc2c1)C(=O)N[C@@H](Cc1ccccc1)C(=O)N[C@H](C(=O)N[C@@H](CCCCN)C(N)=O)CNC3=O [Peptide 42, bicyclo[Tm-(D-Phe-Fpa-D-Thr-Pip-Nal-Arg-Ala-D-Phe)-Dap-(Arg-Arg-Arg-Arg-Nal-Phe-Dap)]-Lys] ([dF][Phe(4-F)][dT][Pip][2Nal]RA[dF][Dap]RRRR[2Nal]F[Dap]K-NH2; linker N-9-16 via Trimesoyl; C-terminus assumed)
710 ± 120 | bicyclo[Tm-(D-4-Phe-Fpa-D-Nle-Pip-Nal-Arg-Ala-D-Phe)-Dap-(Phe-Nal-Arg-Arg-Arg-Arg-Dap)]-Lys [Peptide 40]
4600 ± 1420 | CN1CC(=O)N[C@H](CC(=O)O)C(=O)N2CCCC[C@H]2C(=O)N[C@@H](Cc2ccc3ccccc3c2)C(=O)N[C@@H](CCCNC(=N)N)C(=O)N[C@@H](CCCNC(=N)N)C(=O)N[C@H](CC(=O)O)C(=O)N[C@H]2CNC(=O)c3cc(cc(c3)C(=O)N3CCC[C@H]3C1=O)C(=O)NC[C@@H](C(=O)N[C@@H](CCCCN)C(N)=O)NC(=O)[C@H](CCCNC(=N)N)NC(=O)[C@H](CCCNC(=N)N)NC(=O)[C@H](CCCNC(=N)N)NC(=O)[C@H](CCCNC(=N)N)NC(=O)[C@H](Cc1ccc3ccccc3c1)NC(=O)[C@H](Cc1ccccc1)NC2=O [Peptide 25, bicyclo[Tm-(Pro-Sar-D-Asp-Pip-Nal-Arg-Arg-D-Asp)-Dap-(Phe-Nal-Arg-Arg-Arg-Arg-Dap)]-Lys] (P[Sar][dD][Pip][2Nal]RR[dD][Dap]F[2Nal]RRRR[Dap]K-NH2; linker N-9-16 via Trimesoyl; C-terminus assumed)
1260 ± 280 | C[C@@H]1NC(=O)[C@H](CCCNC(=N)N)NC(=O)[C@H](Cc2ccc3ccccc3c2)NC(=O)[C@@H]2CCCCN2C(=O)[C@@H]([C@H](C)O)NC(=O)[C@H](Cc2ccccc2)NC(=O)[C@@H](Cc2ccccc2)NC(=O)c2cc3cc(c2)C(=O)NC[C@H](NC(=O)[C@@H](Cc2ccccc2)NC1=O)C(=O)N[C@@H](Cc1ccccc1)C(=O)N[C@@H](Cc1ccc2ccccc2c1)C(=O)N[C@@H](CCCNC(=N)N)C(=O)N[C@@H](CCCNC(=N)N)C(=O)N[C@@H](CCCNC(=N)N)C(=O)N[C@@H](CCCNC(=N)N)C(=O)N[C@H](C(=O)N[C@@H](CCCCN)C(N)=O)CNC3=O [Peptide 28, bicyclo[Tm-(D-Phe-Phe-D-Thr-Pip-Nal-Arg-Ala-D-Phe)-Dap-(Phe-Nal-Arg-Arg-Arg-Arg-Dap)]-Lys] ([dF]F[dT][Pip][2Nal]RA[dF][Dap]F[2Nal]RRRR[Dap]K-NH2; linker N-9-16 via Trimesoyl; C-terminus assumed)
480 | CN1CC(=O)N[C@H](CC(=O)O)C(=O)N2CCCC[C@H]2C(=O)N[C@@H](Cc2ccc3ccccc3c2)C(=O)N[C@@H](CCCNC(=N)N)C(=O)N[C@@H](CCCNC(=N)N)C(=O)N[C@H](Cc2ccccc2)C(=O)N[C@H]2CNC(=O)c3cc(cc(c3)C(=O)N3CCC[C@H]3C1=O)C(=O)NC[C@@H](C(=O)N[C@@H](CCCCN)C(N)=O)NC(=O)[C@H](CCCNC(=N)N)NC(=O)[C@H](CCCNC(=N)N)NC(=O)[C@H](CCCNC(=N)N)NC(=O)[C@H](CCCNC(=N)N)NC(=O)[C@H](Cc1ccc3ccccc3c1)NC(=O)[C@H](Cc1ccccc1)NC2=O [Peptide 22, bicyclo[Tm-(Pro-Sar-D-Asp-Pip-Nal-Arg-Arg-D-Phe)-Dap-(Phe-Nal-Arg-Arg-Arg-Arg-Dap)]-Lys] (P[Sar][dD][Pip][2Nal]RR[dF][Dap]F[2Nal]RRRR[Dap]K-NH2; linker N-9-16 via Trimesoyl; C-terminus assumed)
870 ± 80 | bicyclo[Tm-(D-4-Phe-Fpa-D-homoGlu-Pip-Nal-Arg-Ala-D-Phe)-Dap-(Phe-Nal-Arg-Arg-Arg-Arg-Dap)]-Lys [Peptide 41]
3190 ± 500 | C[C@H]1NC(=O)[C@H](CC(=O)O)NC(=O)[C@H](CCCNC(=N)N)NC(=O)[C@H](Cc2ccc3ccccc3c2)NC(=O)[C@@H]2CCCCN2C(=O)[C@@H](CC(=O)O)NC(=O)CN(C)C(=O)[C@@H]2CCCN2C(=O)c2cc3cc(c2)C(=O)NC[C@H](NC1=O)C(=O)N[C@@H](Cc1ccccc1)C(=O)N[C@@H](Cc1ccc2ccccc2c1)C(=O)N[C@@H](CCCNC(=N)N)C(=O)N[C@@H](CCCNC(=N)N)C(=O)N[C@@H](CCCNC(=N)N)C(=O)N[C@@H](CCCNC(=N)N)C(=O)N[C@H](C(=O)N[C@@H](CCCCN)C(N)=O)CNC3=O [Peptide 20, bicyclo[Tm-(Pro-Sar-D-Asp-Pip-Nal-Arg-Asp-D-Ala)-Dap-(Phe-Nal-Arg-Arg-Arg-Arg-Dap)]-Lys] (P[Sar][dD][Pip][2Nal]RD[dA][Dap]F[2Nal]RRRR[Dap]K-NH2; linker N-9-16 via Trimesoyl; C-terminus assumed)

same assay, conditions: peptide 22 vs 3; peptide 27 vs 4

Improvement of Pin1 binding by D-Phe for D-Ala vs parent peptide [fold] | Molecule
~2 | CN1CC(=O)N[C@H](CC(=O)O)C(=O)N2CCCC[C@H]2C(=O)N[C@@H](Cc2ccc3ccccc3c2)C(=O)N[C@@H](CCCNC(=N)N)C(=O)N[C@@H](CCCNC(=N)N)C(=O)N[C@H](Cc2ccccc2)C(=O)N[C@H]2CNC(=O)c3cc(cc(c3)C(=O)N3CCC[C@H]3C1=O)C(=O)NC[C@@H](C(=O)N[C@@H](CCCCN)C(N)=O)NC(=O)[C@H](CCCNC(=N)N)NC(=O)[C@H](CCCNC(=N)N)NC(=O)[C@H](CCCNC(=N)N)NC(=O)[C@H](CCCNC(=N)N)NC(=O)[C@H](Cc1ccc3ccccc3c1)NC(=O)[C@H](Cc1ccccc1)NC2=O [Peptide 22, bicyclo[Tm-(Pro-Sar-D-Asp-Pip-Nal-Arg-Arg-D-Phe)-Dap-(Phe-Nal-Arg-Arg-Arg-Arg-Dap)]-Lys] (P[Sar][dD][Pip][2Nal]RR[dF][Dap]F[2Nal]RRRR[Dap]K-NH2; linker N-9-16 via Trimesoyl; C-terminus assumed)
